Reference: ChEMBL document CHEMBL1201862, “PubChem BioAssay data set” (2004)
Calls of active or inactive are those of the source.

Key:
cells [1] = test: cells
[2] = HEp-2 cell cytotoxicity, dose response, cytotoxicity control for RSV inhibitor project, HTS (AID 2410); format: functional; conditions: human respiratory syncytial virus
[3] = target: T1, Luciferin 4-monooxygenase (Photinus pyralis, UniProt P08659); test: Counter Screen for Luciferase-based Assay Positives. [Related pubchem assays: 620, 618, 411 ]
T1 sequence (P08659 whole entry): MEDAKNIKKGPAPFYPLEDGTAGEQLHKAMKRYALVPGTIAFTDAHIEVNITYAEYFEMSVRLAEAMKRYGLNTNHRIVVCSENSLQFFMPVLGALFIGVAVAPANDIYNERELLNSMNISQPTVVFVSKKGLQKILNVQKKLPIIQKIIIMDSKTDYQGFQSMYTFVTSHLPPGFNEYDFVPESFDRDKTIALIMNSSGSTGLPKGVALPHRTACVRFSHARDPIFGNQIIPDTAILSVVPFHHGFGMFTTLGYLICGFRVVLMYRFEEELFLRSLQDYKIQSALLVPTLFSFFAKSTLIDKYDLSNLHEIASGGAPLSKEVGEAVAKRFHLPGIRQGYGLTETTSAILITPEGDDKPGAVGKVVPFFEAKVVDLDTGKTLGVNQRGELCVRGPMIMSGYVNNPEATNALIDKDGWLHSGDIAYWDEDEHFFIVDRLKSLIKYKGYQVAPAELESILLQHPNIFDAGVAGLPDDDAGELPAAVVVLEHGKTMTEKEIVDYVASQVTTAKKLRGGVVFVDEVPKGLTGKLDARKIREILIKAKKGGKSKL

HT-1080 = test: cytotoxicity in HT1080 fibrosarcoma cells, cell-based, fluorescence readout (AID 620); format: functional; conditions: Homo sapiens
Protein skinhead-1 = target: T2, Protein skinhead-1 (Caenorhabditis elegans, UniProt P34707); format: functional
T2 sequence (P34707 whole entry): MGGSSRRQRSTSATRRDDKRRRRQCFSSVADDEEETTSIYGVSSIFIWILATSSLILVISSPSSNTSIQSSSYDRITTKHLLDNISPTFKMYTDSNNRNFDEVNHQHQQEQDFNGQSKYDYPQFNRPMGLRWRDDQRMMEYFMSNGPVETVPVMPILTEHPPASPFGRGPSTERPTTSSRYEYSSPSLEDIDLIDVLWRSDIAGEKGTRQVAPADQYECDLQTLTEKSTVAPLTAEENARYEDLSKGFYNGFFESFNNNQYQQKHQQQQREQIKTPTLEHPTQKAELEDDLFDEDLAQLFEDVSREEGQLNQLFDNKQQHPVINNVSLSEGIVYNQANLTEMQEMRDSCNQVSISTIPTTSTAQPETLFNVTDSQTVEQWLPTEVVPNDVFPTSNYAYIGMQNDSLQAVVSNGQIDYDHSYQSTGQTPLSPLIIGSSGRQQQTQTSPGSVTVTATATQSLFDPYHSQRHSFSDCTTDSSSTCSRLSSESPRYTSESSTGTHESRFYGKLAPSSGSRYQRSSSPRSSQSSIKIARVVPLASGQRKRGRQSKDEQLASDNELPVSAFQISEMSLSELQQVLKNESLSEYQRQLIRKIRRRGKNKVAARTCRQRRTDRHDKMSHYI

[4] = THP-1 cell cytotoxicity, dose response, cytotoxicity control for non-replicating M. tuberculosis project (AID 489025); format: functional
cells [5] = format: functional
[6] = cytotoxicity toward NIH3T3 fibroblasts, dose response, counter-screen, cell-based, ATP luminescence, mouse fibroblasts (AID 2010); format: functional;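 further: cells exposed to compound for about 90 hours before reading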
[7] = Vero E6 cell cytotoxicity, dose response, cytotoxicity control for non-replicating M. tuberculosis project, secondary assay (AID 492998); format: functional, VeroE6; conditions: Vero C1008
HeLa = test: HeLa cell cytotoxicity, dose response, cytotoxicity control, 24 h, cherry-picked samples (AID 504726); format: functional, cell-based; conditions: Homo sapiens;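 further: potency for cytotoxicity as loss of luminescence signal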
[8] = inhibitors of intracellular T. cruzi replication, confirmation, NIH3T3 host cells, beta-gal luminescence (AID 2044); format: functional, cell-based;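 further: intracellular parasites grown in NIH/3T3 mouse fibroblasts as host cells; luminescent beta-galactosidase reporter signal from transgenic T. cruzi replicating inside host cells; inhibitors lower the luminescence signal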
[9] = target: T3, Calpain-2 catalytic subunit (Sus scrofa, UniProt P43367); test: pig calpain II inhibitor potency, dose response, biochemical, fluorogenic peptide substrate (AID 1420); format: functional
T3 sequence (P43367 whole entry): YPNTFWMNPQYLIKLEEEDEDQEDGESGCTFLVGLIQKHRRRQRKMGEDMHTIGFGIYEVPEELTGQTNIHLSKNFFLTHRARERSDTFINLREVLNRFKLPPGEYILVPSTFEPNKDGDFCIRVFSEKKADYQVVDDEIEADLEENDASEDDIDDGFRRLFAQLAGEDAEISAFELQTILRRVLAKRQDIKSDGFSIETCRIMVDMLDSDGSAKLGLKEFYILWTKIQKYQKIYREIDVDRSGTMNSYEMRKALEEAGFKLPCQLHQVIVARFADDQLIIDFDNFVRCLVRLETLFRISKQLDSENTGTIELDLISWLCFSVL

[10] = target: G-protein coupled receptor 55 (Homo sapiens, UniProt Q9Y2T6); test: GPR55 antagonists blocking LPI-driven arrestin recruitment, primary screen, imaging, U2OS, beta-arrestin-GFP, LPI agonist (AID 2013); format: functional;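 further: antagonist potency measured as reduced agonist-driven arrestin aggregation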
Chain of G-protein coupled receptor 55 (Q9Y2T6 whole entry): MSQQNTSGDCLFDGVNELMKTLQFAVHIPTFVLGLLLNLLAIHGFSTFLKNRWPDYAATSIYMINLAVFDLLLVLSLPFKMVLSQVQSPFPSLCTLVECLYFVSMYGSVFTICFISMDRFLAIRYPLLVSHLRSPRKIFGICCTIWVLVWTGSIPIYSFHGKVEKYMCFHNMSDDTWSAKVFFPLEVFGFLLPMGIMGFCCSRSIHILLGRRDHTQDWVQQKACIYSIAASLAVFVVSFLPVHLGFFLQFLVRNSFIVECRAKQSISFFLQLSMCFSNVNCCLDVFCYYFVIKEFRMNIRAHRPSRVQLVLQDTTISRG

[11] = target: Eukaryotic translation initiation factor 4E (Mus musculus, UniProt P63073); test: eIF4E–eIF4G protein interaction inhibitors, dose response, biochemical, TR-FRET (AID 855); format: functional;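 further: potency for disrupting eIF4E binding to eIF4GI seen as loss of FRET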
Chain of Eukaryotic translation initiation factor 4E (P63073 whole entry): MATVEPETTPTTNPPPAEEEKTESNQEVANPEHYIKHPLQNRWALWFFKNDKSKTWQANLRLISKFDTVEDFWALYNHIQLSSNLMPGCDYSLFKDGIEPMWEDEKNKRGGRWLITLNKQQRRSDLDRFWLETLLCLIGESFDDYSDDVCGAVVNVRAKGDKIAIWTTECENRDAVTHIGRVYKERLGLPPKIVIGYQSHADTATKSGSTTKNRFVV

[12] = A Cell Based Secondary Assay To Explore Cytotoxicity of Compounds that Sensitize Mycobacterium Tuberculosis to Beta-Lactam Antibiotics.; format: functional
[13] = target: T4, Heat shock factor protein 1 (Mus musculus, UniProt P38532); test: inhibition of MG132-induced HSE-luciferase signal, confirmation, cell-based, NIH3T3, luminescence, dose retest (AID 2382); format: functional;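 further: NIH3T3 fibroblasts with HSF1-driven luciferase reporter stressed by proteasome inhibitor MG132; luminescence from HSF1-driven luciferase expression after 8 hours of MG132 stress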
T4 sequence (P38532 whole entry): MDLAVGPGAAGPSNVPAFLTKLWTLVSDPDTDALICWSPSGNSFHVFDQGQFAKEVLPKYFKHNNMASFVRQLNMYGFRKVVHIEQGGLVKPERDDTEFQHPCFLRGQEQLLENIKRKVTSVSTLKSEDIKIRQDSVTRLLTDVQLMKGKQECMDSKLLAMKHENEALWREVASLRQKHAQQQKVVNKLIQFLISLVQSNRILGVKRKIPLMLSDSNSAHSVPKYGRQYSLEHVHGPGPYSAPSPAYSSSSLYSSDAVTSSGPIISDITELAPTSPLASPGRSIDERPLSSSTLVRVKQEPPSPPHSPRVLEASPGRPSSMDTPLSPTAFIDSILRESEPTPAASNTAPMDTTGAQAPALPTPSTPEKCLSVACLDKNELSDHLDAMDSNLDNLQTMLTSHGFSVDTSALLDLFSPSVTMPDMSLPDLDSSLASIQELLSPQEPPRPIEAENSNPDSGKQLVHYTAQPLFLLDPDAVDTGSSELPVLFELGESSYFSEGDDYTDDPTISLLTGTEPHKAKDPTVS

Coagulation factor XII = target: T5, Coagulation factor XII (Homo sapiens, UniProt P00748); test: FXIIa inhibitor potency, concentration-response, biochemical (AID 716); format: functional
T5 sequence (P00748 whole entry): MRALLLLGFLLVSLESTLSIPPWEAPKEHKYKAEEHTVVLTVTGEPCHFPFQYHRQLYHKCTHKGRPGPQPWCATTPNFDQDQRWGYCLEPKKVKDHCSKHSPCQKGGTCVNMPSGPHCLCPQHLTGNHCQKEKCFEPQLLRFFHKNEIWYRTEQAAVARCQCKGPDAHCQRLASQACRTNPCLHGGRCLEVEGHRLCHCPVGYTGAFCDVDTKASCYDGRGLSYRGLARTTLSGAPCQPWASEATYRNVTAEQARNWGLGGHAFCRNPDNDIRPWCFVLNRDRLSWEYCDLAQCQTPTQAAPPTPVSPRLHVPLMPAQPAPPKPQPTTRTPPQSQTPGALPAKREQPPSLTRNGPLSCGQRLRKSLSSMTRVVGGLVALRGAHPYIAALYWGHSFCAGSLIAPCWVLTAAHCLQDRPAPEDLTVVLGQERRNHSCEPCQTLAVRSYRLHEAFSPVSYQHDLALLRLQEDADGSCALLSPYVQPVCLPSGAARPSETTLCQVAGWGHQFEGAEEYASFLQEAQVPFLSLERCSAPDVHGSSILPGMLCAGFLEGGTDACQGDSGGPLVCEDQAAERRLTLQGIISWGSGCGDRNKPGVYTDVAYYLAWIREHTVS

[14] = microbe, parasite or virus in culture; format: functional; conditions: Mycobacterium tuberculosis
A-375 = test: A375 melanoma cell viability reduction, dose response, counter-screen for MITF modulator project, cherry-pick samples, set 2 (AID 540335); format: functional, cell-based; conditions: Homo sapiens
[15] = A549 cell cytotoxicity, dose response, cytotoxicity control, plate reader, cherry-pick, antagonist series (AID 743412); format: functional, cell-based
[16] = Shn3 3'UTR reporter inhibitors, dose response, cell-based, Clone20 osteoblasts, firefly luciferase, cherry-picked (AID 624132); format: functional;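 further: firefly luciferase luminescence from reporter carrying the Shn3 3'UTR in osteoblasts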
[17] = HepG2 cell cytotoxicity, dose response, cytotoxicity control for Shn3 inhibitor project, CellTiter-Glo, cherry-picked (AID 624134); format: functional, cell-based
[18] = target: T6, Microphthalmia-associated transcription factor (Homo sapiens, UniProt O75030); test: TRPM1 promoter luciferase signal decrease, dose response, MITF inhibitor project, cell-based, SK-MEL-5, cherry-picked, set 3 (AID 493073); format: functional
T6 sequence (O75030 whole entry): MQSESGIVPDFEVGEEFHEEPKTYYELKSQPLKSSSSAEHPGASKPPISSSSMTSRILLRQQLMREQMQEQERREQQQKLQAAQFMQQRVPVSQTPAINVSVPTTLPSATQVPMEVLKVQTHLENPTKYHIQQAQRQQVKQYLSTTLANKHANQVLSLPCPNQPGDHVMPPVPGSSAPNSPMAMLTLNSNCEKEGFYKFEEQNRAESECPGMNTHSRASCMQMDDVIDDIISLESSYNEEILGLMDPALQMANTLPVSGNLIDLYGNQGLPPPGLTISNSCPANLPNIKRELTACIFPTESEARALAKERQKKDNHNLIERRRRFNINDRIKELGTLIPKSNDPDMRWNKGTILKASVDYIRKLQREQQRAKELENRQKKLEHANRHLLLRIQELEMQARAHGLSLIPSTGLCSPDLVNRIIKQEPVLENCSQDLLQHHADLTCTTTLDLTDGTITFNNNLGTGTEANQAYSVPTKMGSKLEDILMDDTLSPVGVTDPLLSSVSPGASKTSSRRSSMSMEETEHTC

[19] = MC4R antagonists, dose response, counter-screen for LGR2 antagonist project, cell-based, plate reader, cherry pick (AID 743444); format: functional;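 further: transfected HEK 293 cells stimulated with alpha-MSH peptide; potency of inhibitors of the alpha-MSH evoked signal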
[20] = HEK293 cell cytotoxicity, dose response, cytotoxicity control, plate reader, cherry-picked samples (AID 743446); format: functional, cell-based
[21] = control 3'UTR Renilla luciferase suppression, dose response, counter-screen for Shn3 inhibitor project, cell-based, Clone20-Shn3RL, cherry-picked (AID 624133); format: functional
[22] = target: T1, Luciferin 4-monooxygenase; test: firefly luciferase enzyme inhibitors, dose response, biochemical, luminescence (AID 1891)
[23] = Luminescence Cell-Based Dose Confirmation HTS to Identify Inhibitors of Platelet Dense Granule Release. [Related pubchem assays: 1663 (Primary HTS), 1678 (Summary of Project)]; format: functional
[24] = LGR2 antagonists, dose response, cell-based, HEK293, CRE-luciferase reporter, cherry pick, set 2 (AID 743343); format: functional;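 further: transfected cells were stimulated with diluted bursicon conditioned medium after compound addition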
[25] = target: FAD-linked sulfhydryl oxidase ALR (Homo sapiens, UniProt P55789); test: inhibitors of human ALR sulfhydryl oxidase, dose response, biochemical, H2O2 detection, luminescence, cherry-pick (AID 493248)
Chain of FAD-linked sulfhydryl oxidase ALR (P55789 whole entry): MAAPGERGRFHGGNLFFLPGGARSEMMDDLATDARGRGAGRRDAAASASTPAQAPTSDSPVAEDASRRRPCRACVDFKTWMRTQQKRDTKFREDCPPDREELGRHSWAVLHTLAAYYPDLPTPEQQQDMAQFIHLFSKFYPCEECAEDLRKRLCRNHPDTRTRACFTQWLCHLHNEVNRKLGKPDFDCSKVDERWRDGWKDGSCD

## CC(Nc1ccccc1N1CCCCC1)C(=O)N1CCc2ccccc21 (stereo not given)
Cells [1]
  IC50: 15.4 µM (active)
[2]
  CC50: > 50 µM (active)

## c1ccc(-c2nc3cc4ccccc4cc3[nH]2)nc1
[3]
  EC50: 6.86 µM (active)
HT-1080
  EC50: 14.6 µM (active)
Protein skinhead-1
  IC50: 9.19 µM (active)

## O=C(N/N=C\c1ccc([N+](=O)[O-])o1)c1cncc(Br)c1
[4]
  CC50: 27.4 µM (active)
Cells [5]
  IC50: 3.94 µM (active)
[6]
  EC50: > 60 µM (not active)
[7]
  CC50: > 20 µM (active)
HeLa
  AC50: > 350 µM (inactive)
[8]
  EC50: 0.389 µM (active)

## Cc1c(C(=O)N2CCN(S(=O)(=O)c3ccccc3F)CC2)oc2c(Cl)cccc12
Cells [1]
  IC50: > 50 µM (active)
Protein skinhead-1
  IC50: > 100 µM (inactive)
[2]
  CC50: 31.6 µM (active)

## c1ccc(CCNc2ncnc3scc(C4COc5ccccc5O4)c23)cc1 (stereo not given)
[9]
  IC50: 10.4 µM (not active)
[10]
  IC50: 3.59 µM (active)

## NC1=NC(=O)/C(=C\c2ccsc2)S1
[11]
  IC50: 50 µM (inactive)

## Cc1ccc(-c2nnc(O)c(O)c2N=Nc2ccccc2)cc1
[12]
  CC50: > 40 µM (active)

## O=C(C1=C[C@H](c2ccc(Br)cc2)C[C@H](OCCCCO)O1)N1CCN(Cc2ccc3c(c2)OCO3)CC1
[12]
  CC50: > 40 µM (active)
[13]
  EC50: > 195 µM (not active)
[6]
  EC50: > 60 µM (not active)
[8]
  EC50: 0.346 µM (active)

## CC(=O)c1c(C)nn(CC(O)COc2ccc3c(c2)CCC3)c1C (stereo not given)
Coagulation factor XII
  IC50: > 50 µM (inactive)

## Cc1nc2ccc(S(=O)(=O)NC(C(=O)Nc3nc4ccc(Cl)cc4s3)C(C)C)cc2s1 (stereo not given)
[10]
  IC50: 0.894 µM (active)

## COc1ccccc1CNC(=O)c1ccc(SC)cc1OC
[12]
  CC50: > 40 µM (active)
[2]
  CC50: > 50 µM (active)

## Cc1cc(NC(=O)CCC(=O)N(CCC(C)C)C(C(=O)NC2CCCC2)c2cccnc2)no1 (stereo not given)
HeLa
  AC50: > 350 µM (inactive)

## CCCCOCCCn1c(-c2ccco2)nc2nc3ccccc3nc21
[11]
  IC50: > 64 µM (inactive)
[14]
  CC50: > 40 µM (active)

## COc1cc(/C=C/c2cc(C(=O)O)c3ccccc3n2)ccc1OC(F)F
Cells [1]
  IC50: 28.6 µM (active)
[2]
  CC50: 35.7 µM (active)

## COc1cc(SC)ccc1C(=O)Nc1nc(C)cs1
A-375
  AC50: 47.4 µM (active)
[13]
  EC50: 0.845 µM (active)
[15]
  AC50: 43.9 µM (active)
[16]
  AC50: 7.09 µM (active)
[17]
  AC50: > 70 µM (inactive)
[18]
  AC50: 4.81 µM (active)
[19]
  AC50: 0.491 µM (active)
[20]
  AC50: 24.9 µM (active)
HeLa
  AC50: 42.3 µM (active)
[21]
  AC50: 35.2 µM (active)
[22]
  EC50: 0.511 µM (active)
[23]
  EC50: 7.22 µM (active)
[24]
  AC50: 0.49 µM (active)

## Clc1c(CSc2nc3ccccc3o2)nc2ccccn12
[3]
  EC50: 9.33 µM (active)
HT-1080
  EC50: > 50 µM (not active)
[25]
  AC50: 7.37 µM (active)

## O=C1CC(N2CCN(Cc3ccc4c(c3)OCO4)CC2)C(=O)N1c1cccc(Cl)c1 (stereo not given)
[11]
  IC50: > 64 µM (inactive)

## Cc1noc(C)c1COC(=O)Cc1ccc(Cl)cc1
Coagulation factor XII
  IC50: > 50 µM (inactive)

## CCOC(=O)N1CCN(C(=O)C2CC(c3ccc(F)cc3)=NO2)CC1 (stereo not given)
Coagulation factor XII
  IC50: > 50 µM (inactive)
